Patent publication US20100297023A1, “Lipid” (priority 2006, published 2010)

Tests used:
[1] = system: mouse apoB gene; test: Down-regulation of the apoB gene in vivo (liver, real time PCR); set-up: species or system Balb/C mice; conditions: tail vein, liver at 48 h
Method: Lipid-siRNA AB nanoparticles with CDAN and DODAG were prepared at final lipid:siRNA ratios of 2.5 and 3, respectively. These values correspond to the optimal ratios to completely retard the siRNA on a precast 0.8% agarose gel (Invitrogen). All lipid-siRNA AB nanoparticle complexes were made in water at a final concentration of 0.5 mg siRNA/mL in water.
Experimental The appropriate amounts of CDAN and DODAG from stock solutions in water (5 mg/mL and 2 mg/mL, respectively) were pipetted into a 25 mL falcon plastic tube. The appropriate amount of anti-apoB siRNA from a stock solution of 10 mg/mL was added slowly to the respective lipid solution while vortexing the falcon tube. The appropriate amount of a solution of trehalose (100%, w/v in water) was added and the sample vortexed heavily for 10 s. The samples were then sonicated in a water bath for 15 mins to generate homogenous emulsions. 15 mins prior to the injection of the samples into Balb/C mice, 1.5M NaCl was added so that each lipid-siRNA AB nanoparticle preparation contained a final concentration of 150 mM NaCl. 200 μL aliquots were injected via tail vein and the animals left for 48 h before sacrificing. The liver was extracted and immediately put into a solution of RNAlater (Ambion). The total RNA was extracted using RNAeasy columns (Qiagen), and quantified both by UV absorption (λ=260 nm) and by densiometry of the bands on a 2% agarose formaldehyde gel.
1 μg of the total RNA was reversed transcribed to generate cDNA in a total volume of 20 μL. After completion of the reaction, the total reaction volume was supplemented to 40 μL with water. From this solution, 1 μL was used to do real time PCR (Sybr green) using the forward primer 5′-[…] (SEQ ID NO: 26) and the reverse primer 5′-[…] (SEQ ID NO:27) on an Applied Biosystem 7700 machine. The data were analysed using the ABI prism software (FIG. 4).

[2] = system: siRNA; test: Agarose gel retardation assay of siRNA with lipid; type: physicochemical; conditions: for optimal lipid:siRNA ratio to completely retard the siRNA: precast 0.8% agarose gel, anti-apoB siRNA
Method: Gel retardation assay. In order to define the optimal ratio between lipid:siRNA to achieve full complexation of the nucleic acid which is manifested by a complete retardation in an electrical field, different ratios of lipid:siRNA (0-3) were produced and aliquots run on precast 0.8% agarose gels (Invitrogen). For this purpose, 1 μg siRNA were pipetted into 0.5 mL eppendorf tubes complemented with distilled water to 10 μL. The appropriate amount of lipid from a stock in water (2 mg/mL) were added to generate lipid:siRNA ratios between 0 and 3. All samples were vortexed and the whole reaction mixture pipetted to the individual wells of 0.8% pre-cast agarose gels and run at 50V/10 mA for 20 mins (FIG. 2). […] Therefore, for all future in vivo experiments, a ratio of 3:1 (lipid:siRNA) was chosen.

[3] = system: CyPB mRNA in HeLa cells; test: Down-regulation of the cyclophilin B gene in vitro (real time PCR); type: cell-based, human; conditions: lipid:siRNA ratios lower than 13:1 (w/w)
Method: Experimental 4 μg (3.74 μL) siRNA were complemented with 770 μL OptiMEM and 52 μg (26 μL) DODAG (2 mg/mL, water) added under vortexing. The DODAG-siRNA AB nanoparticles were allowed to stand for 5 mins at room temperature. 200 μL of the DODAG-siRNA AB nanoparticle solution were pipetted to two wells of a six well plate containing HeLa cells (250,000), and the cells incubated at 37° C. for 3 h under CO2 regime. The cells were then washed with warm PBS and incubated for another 48 h before lysing and extracting the total RNA using RNAeasy extraction columns (Qiagen). The same protocol was employed with CDAN. For DOGS, the protocol as recommended by the manufacturer was applied. The quality of the total RNA was verified on a 2% agarose formaldehyde gel, and the RNA quantified by UV (260 nm). 1 μg RNA of each sample was reverse transcribed to generate cDNA which was real time PCRed using standard protocols with Sybr green. The CyPB levels were standardized to β-actin levels for each sample (FIG. 3).

Row | optimal lipid:siRNA ratio to completely retard the siRNA [2] | N/P ratio at which the movement of siRNA was entirely retarded ([2]; agarose gel, assuming cationic charge of 1.5 per DODAG) | SMILES | down-regulation of the apoB mRNA in vivo ([1]; 5 mg siRNA/kg animal) | down-regulation of the apoB mRNA in vivo ([1]; 15 mg siRNA/kg animal) | specific down-regulation of CyPB in vitro [3]
1 | 2.5 |  | CC(C)CCC[C@@H](C)[C@H]1CC[C@H]2[C@@H]3CC=C4C[C@@H](OC(=O)NCCNCCCNCCN)CC[C@]4(C)[C@H]3CC[C@]12C [CDAN, N^1-cholesteryloxycarbonyl-3,7-diazanonane-1,9-diamine] | did not mediate down-regulation | did not mediate down-regulation | 
2 | 3 | 1.8 | CCCCCCCCCCCCCCCCCCN(CCCCCCCCCCCCCCCCCC)C(=O)CNC(=O)CCNCCCNCCN [DODAG, N′,N′-dioctadecyl-N-4,8-diaza-10-aminodecanoylglycine amide] | > 60% |  | unsuccessful
